Tested on: hepatitis C replicon
Test: hepatitis C replicon EC50
Assay type: cell-based
Details: Hepatitis C virus; Table 3; hepatitis C replicon; read-out: EC50
From the text: NS3-NS4 inhibition activity can be determined using known assay methods.

SMILES | EC50 [nM]
CC(C)n1c(O[C@@H]2C[C@H]3C(=O)N[C@]4(C(=O)NS(=O)(=O)N(C)C)C[C@H]4/C=C\CCCCC[C@H](NC(=O)OC(C)(C)C)C(=O)N3C2)nc2ccccc21 [Compound 1131] | < 10
CCn1c(O[C@@H]2C[C@H]3C(=O)N[C@]4(C(=O)NS(=O)(=O)N(C)C)C[C@H]4/C=C\CCCCC[C@H](NC(=O)OC(C)(C)C)C(=O)N3C2)nc2ccccc21 [Compound 1132] | < 10
CC(C)n1c(O[C@@H]2C[C@H]3C(=O)N[C@]4(C(=O)NS(=O)(=O)N(C)C)C[C@H]4/C=C\CCCCC[C@H](NC(=O)OC(C)(C)C)C(=O)N3C2)nc2cc(F)ccc21 [Compound 1133] | < 10
CC(C)n1c(O[C@@H]2C[C@H]3C(=O)N[C@]4(C(=O)NS(=O)(=O)N(C)C)C[C@H]4/C=C\CCCCC[C@H](NC(=O)OC(C)(C)C)C(=O)N3C2)nc2cccc(F)c21 [Compound 1134] | < 10
CC(C)n1c(O[C@@H]2C[C@H]3C(=O)N[C@]4(C(=O)NS(=O)(=O)N(C)C)C[C@H]4/C=C\CCCCC[C@H](NC(=O)OC(C)(C)C)C(=O)N3C2)nc2c(F)cccc21 [Compound 1135] | < 10
CC(C)n1c(O[C@@H]2C[C@H]3C(=O)N[C@]4(C(=O)NS(=O)(=O)N(C)C)C[C@H]4/C=C\CCCCC[C@H](NC(=O)OC(C)(C)C)C(=O)N3C2)nc2ccc(F)cc21 [Compound 1136] | < 10
Cc1ccc2c(c1)nc(O[C@@H]1C[C@H]3C(=O)N[C@]4(C(=O)NS(=O)(=O)N(C)C)C[C@H]4/C=C\CCCCC[C@H](NC(=O)OC(C)(C)C)C(=O)N3C1)n2C(C)C [Compound 1137] | < 10
Cc1cccc2nc(O[C@@H]3C[C@H]4C(=O)N[C@]5(C(=O)NS(=O)(=O)N(C)C)C[C@H]5/C=C\CCCCC[C@H](NC(=O)OC(C)(C)C)C(=O)N4C3)n(C(C)C)c12 [Compound 1138] | < 10
Cc1ccc2nc(O[C@@H]3C[C@H]4C(=O)N[C@]5(C(=O)NS(=O)(=O)N(C)C)C[C@H]5/C=C\CCCCC[C@H](NC(=O)OC(C)(C)C)C(=O)N4C3)n(C(C)C)c2c1 [Compound 1139] | < 10
Cc1cccc2c1nc(O[C@@H]1C[C@H]3C(=O)N[C@]4(C(=O)NS(=O)(=O)N(C)C)C[C@H]4/C=C\CCCCC[C@H](NC(=O)OC(C)(C)C)C(=O)N3C1)n2C(C)C [Compound 1140] | < 10
CN(C)S(=O)(=O)NC(=O)[C@@]12C[C@H]1/C=C\CCCCC[C@H](NC(=O)OC(C)(C)C)C(=O)N1C[C@H](Oc3nc4ccccc4n3C3CCCC3)C[C@H]1C(=O)N2 [Compound 1141] | < 10
CC(C)n1c(O[C@@H]2C[C@H]3C(=O)N[C@]4(C(=O)NS(=O)(=O)C5CC5)C[C@H]4/C=C\CCCCC[C@H](NC(=O)OC(C)(C)C)C(=O)N3C2)nc2ccccc21 [Compound 1142] | < 10
CN(C)S(=O)(=O)NC(=O)[C@@]12C[C@H]1/C=C\CCCCC[C@H](NC(=O)OC(C)(C)C)C(=O)N1C[C@H](Oc3nc4ccccc4n3COCC[Si](C)(C)C)C[C@H]1C(=O)N2 [Compound 1143] | > 100
CN(C)S(=O)(=O)NC(=O)[C@@]12C[C@H]1/C=C\CCCCC[C@H](NC(=O)OC(C)(C)C)C(=O)N1C[C@H](Oc3nc4ccccc4[nH]3)C[C@H]1C(=O)N2 [Compound 1144] | > 100

Molecular target: NS3/NS4 complexes (Hepatitis C virus genotype 1a, UniProt P27958)
Test: NS3/NS4 inhibition activity (IC50)
Assay type: biochemical
Details: IC50, Table 3
How it was run: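 Buffer: 50 mM Tris-HCl (pH 7.5), 10 mM DTT, 25 μM NS4A peptide, 0.6 mM LDAO and 15% glycerol. Assays were run at 23 °C with preformed NS3/NS4 complex, and the compound concentration giving inhibition was derived as an IC50.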

Chain of NS3/NS4 complexes (P27958 1027-1657): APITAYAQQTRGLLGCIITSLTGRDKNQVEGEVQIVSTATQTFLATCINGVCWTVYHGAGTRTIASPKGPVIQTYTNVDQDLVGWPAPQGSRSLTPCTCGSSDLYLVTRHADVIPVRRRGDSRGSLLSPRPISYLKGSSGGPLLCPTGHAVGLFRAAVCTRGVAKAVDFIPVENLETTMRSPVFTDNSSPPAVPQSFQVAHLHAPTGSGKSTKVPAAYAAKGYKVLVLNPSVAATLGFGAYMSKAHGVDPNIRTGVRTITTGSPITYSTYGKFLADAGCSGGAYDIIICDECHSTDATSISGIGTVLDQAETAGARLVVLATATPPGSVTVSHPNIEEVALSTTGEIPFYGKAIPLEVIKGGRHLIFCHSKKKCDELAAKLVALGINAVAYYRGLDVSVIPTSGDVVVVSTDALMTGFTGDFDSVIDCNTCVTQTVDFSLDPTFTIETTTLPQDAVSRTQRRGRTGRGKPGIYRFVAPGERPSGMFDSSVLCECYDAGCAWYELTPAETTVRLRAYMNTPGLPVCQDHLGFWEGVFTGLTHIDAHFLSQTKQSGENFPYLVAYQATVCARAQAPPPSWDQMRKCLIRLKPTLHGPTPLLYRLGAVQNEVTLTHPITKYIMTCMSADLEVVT
Chain of NS3/NS4 complexes (P27958 1658-1711): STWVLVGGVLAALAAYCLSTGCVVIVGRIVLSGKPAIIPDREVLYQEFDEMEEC

SMILES | IC50 [nM]
CN(C)S(=O)(=O)NC(=O)[C@@]12C[C@H]1/C=C\CCCCC[C@H](NC(=O)OC(C)(C)C)C(=O)N1C[C@H](Oc3nc4ccccc4n3COCC[Si](C)(C)C)C[C@H]1C(=O)N2 [Compound 1143] | < 10

Same assay, conditions: Table 3, read-out: IC50

SMILES | IC50 [nM]
CC(C)n1c(O[C@@H]2C[C@H]3C(=O)N[C@]4(C(=O)NS(=O)(=O)N(C)C)C[C@H]4/C=C\CCCCC[C@H](NC(=O)OC(C)(C)C)C(=O)N3C2)nc2ccccc21 [Compound 1131] | < 10
CCn1c(O[C@@H]2C[C@H]3C(=O)N[C@]4(C(=O)NS(=O)(=O)N(C)C)C[C@H]4/C=C\CCCCC[C@H](NC(=O)OC(C)(C)C)C(=O)N3C2)nc2ccccc21 [Compound 1132] | < 10
CC(C)n1c(O[C@@H]2C[C@H]3C(=O)N[C@]4(C(=O)NS(=O)(=O)N(C)C)C[C@H]4/C=C\CCCCC[C@H](NC(=O)OC(C)(C)C)C(=O)N3C2)nc2cc(F)ccc21 [Compound 1133] | < 10
CC(C)n1c(O[C@@H]2C[C@H]3C(=O)N[C@]4(C(=O)NS(=O)(=O)N(C)C)C[C@H]4/C=C\CCCCC[C@H](NC(=O)OC(C)(C)C)C(=O)N3C2)nc2cccc(F)c21 [Compound 1134] | < 10
CC(C)n1c(O[C@@H]2C[C@H]3C(=O)N[C@]4(C(=O)NS(=O)(=O)N(C)C)C[C@H]4/C=C\CCCCC[C@H](NC(=O)OC(C)(C)C)C(=O)N3C2)nc2c(F)cccc21 [Compound 1135] | < 10
CC(C)n1c(O[C@@H]2C[C@H]3C(=O)N[C@]4(C(=O)NS(=O)(=O)N(C)C)C[C@H]4/C=C\CCCCC[C@H](NC(=O)OC(C)(C)C)C(=O)N3C2)nc2ccc(F)cc21 [Compound 1136] | < 10
Cc1ccc2c(c1)nc(O[C@@H]1C[C@H]3C(=O)N[C@]4(C(=O)NS(=O)(=O)N(C)C)C[C@H]4/C=C\CCCCC[C@H](NC(=O)OC(C)(C)C)C(=O)N3C1)n2C(C)C [Compound 1137] | < 10
Cc1cccc2nc(O[C@@H]3C[C@H]4C(=O)N[C@]5(C(=O)NS(=O)(=O)N(C)C)C[C@H]5/C=C\CCCCC[C@H](NC(=O)OC(C)(C)C)C(=O)N4C3)n(C(C)C)c12 [Compound 1138] | < 10
Cc1ccc2nc(O[C@@H]3C[C@H]4C(=O)N[C@]5(C(=O)NS(=O)(=O)N(C)C)C[C@H]5/C=C\CCCCC[C@H](NC(=O)OC(C)(C)C)C(=O)N4C3)n(C(C)C)c2c1 [Compound 1139] | < 10
Cc1cccc2c1nc(O[C@@H]1C[C@H]3C(=O)N[C@]4(C(=O)NS(=O)(=O)N(C)C)C[C@H]4/C=C\CCCCC[C@H](NC(=O)OC(C)(C)C)C(=O)N3C1)n2C(C)C [Compound 1140] | < 10
CN(C)S(=O)(=O)NC(=O)[C@@]12C[C@H]1/C=C\CCCCC[C@H](NC(=O)OC(C)(C)C)C(=O)N1C[C@H](Oc3nc4ccccc4n3C3CCCC3)C[C@H]1C(=O)N2 [Compound 1141] | < 10
CC(C)n1c(O[C@@H]2C[C@H]3C(=O)N[C@]4(C(=O)NS(=O)(=O)C5CC5)C[C@H]4/C=C\CCCCC[C@H](NC(=O)OC(C)(C)C)C(=O)N3C2)nc2ccccc21 [Compound 1142] | < 10
CN(C)S(=O)(=O)NC(=O)[C@@]12C[C@H]1/C=C\CCCCC[C@H](NC(=O)OC(C)(C)C)C(=O)N1C[C@H](Oc3nc4ccccc4[nH]3)C[C@H]1C(=O)N2 [Compound 1144] | < 10

Reference: patent publication US8048862B2, “Macrocyclic inhibitors of hepatitis C virus replication” (priority 2008, dated 2011)
